Test system: MIN-6 cells
Test: Cytotoxicity: cell viability of MIN-6 cells by AOPI staining and cell counter
Settings: 24 hours

CN(CC(=O)N(Cc1ccc(C2CCCCC2)cc1)c1ccc(C(=O)O)c(O)c1)S(=O)(=O)c1c(F)c(F)c(F)c(F)c1F [BP-1-102]
cell viability (40 μM): about 59%
cytotoxicity (cell viability) (up to 20 μM): no cytotoxicity was shown

N[C@H]1C(O)O[C@H](CO)[C@@H](O)[C@@H]1O (stereo partly shown) [glucosamine]
cytotoxicity (cell viability) (0.5 mM to 40 mM of each factor): did not show cytotoxicity

NC(=O)c1cccnc1 [nicotinamide]
cytotoxicity (cell viability) (0.5 mM to 40 mM of each factor): did not show cytotoxicity

— US12527806B2, “Composition for preventing or treating diabetes mellitus” (SEOUL NATIONAL UNIVERSITY R&DB FOUNDATION, priority 2020, dated 2026)
